The text below walks through data of patent US20060234914A1, “Fragments of proinsulin c-peptide” (Creative Peptides Sweden AB, priority 2002, published 2006).

Read-outs that look alike come from different tables or passages of the source.

The test system of experiment [1] is human renal tubular cells. Nature of the experiment: Intracellular Ca2+ concentration ([Ca2+]i) measurements as an assay of C-peptide activity. The class given is cell-based. Conditions: for [Ca2+]i response after preincubation of the cells with pertussis toxin: pertussis toxin 1 μg/ml for 4 h at 37° C. An excerpt:
Based on studies showing a C-peptide effect on the intracellular Ca^2+ concentration ([Ca^2+]) (Ohtomo et al., supra, Kunt et al., supra), an assay has been developed, for C-peptide activity, based on measuring [Ca^2+]i changes in human renal tubular cells, namely a rise in [Ca^2+]i.
The following peptides were used, all prepared by solid-phase peptide synthesis and purchased from Sigma (Genosys (Cambridge, UK): human C-peptide, scrambled C-peptide (with the same residues, but randomly ordered des (27-31) C-peptide and C-terminal pentapeptide (EGSLQ).
Human renal tubular cells were obtained from the outer cortex of renal tissues obtained from non-diabetic patients undergoing elective nephrectomy for renal cell carcinomas. The collection of the tissue samples during suegery was approved by the Ethics Committee of the Karolinska Hospital. The cells were cultured in RPMI 1640 (Life Technologies, Grand Island, N.Y.) supplemented with 10% fetal calf serum, 2 mM L-glutamine, 10 mM HEPES, benzylpenicillin (100 U/ml), and streptbmycin (100 U/ml). Cells were grown to confluency on cover slips in a six-well plate and starved in serum-free medium for 4 hours before experiments.
Changes in [Ca^2+1]1 were measured on cells attached to cover slips. The cells were loaded with 2 μM of the fluorescent Ca^2+ indicator fura-2/AM at 37° C. for 30 minutes in a buffer containing 115 mM NaCl, 24 mM NaHCO3, 4.7 mM KCl, 1.26 mM CaCl2 1.2 mM KH2PO4, 1.2 mM MgSOZ 11.1 mM glucose, 20 mM HEPES, and 5 mg/ml bovine serum albumin, pH 7.4. Cover slips were mounted as the bottom of an open chamber placed on a thermostatically controlled stage of an inverted epifluorescence microscope (Zeiss, Axiovert 135). The microscope was connected to a SPEX fluorolog-2 system for dual-wave-length excitation fluorimetry. The emissions of the two excitation wavelengths of 340 and 380 nm were used to calculate the fluorescence ratio (F340/F380) reflecting changes in [Ca^2+]i, [17]. Treatments during recordings were made using a perifusion system attached to the chamber. Changes in [Ca^2+]i were measured using an attached CCD camera that allowed recording of individual cells in the cell clusters. The influence of pertussis toxin was studied by preincubation of the cells with the toxin at 1 μg/ml for 4 h at 37° C.
In these peptides each or all of Glu 3, Glu 11 and Glu 27 of human C-peptide were replaced by Ala. In addition, all of Glu 3, Glu 11 and Glu 27 were replaced by Gln. The peptides were tested for C-peptide activity by monitoring for rises in [Ca^2+]i as described in Example 1.

Experiment [2] relates to p44/42 MAP kinase (Erk1 and Erk2). Nature of the experiment: Western blot of p44/42 MAP kinase phosphorylation in Swiss 3T3 cells. Type of experiment: cell-based, rat. The note with it: Example 6, 1 nM peptide, 3 minutes at 37° C., FIG. 3. Here is the method:
Swiss 3T3 cells, a […] fibroblast cell line, passage 6, were seeded 96 h before use in three 6-well plates. After 96 h, the cells in each well were confluent. The cultivation medium was Dulbecco's Modified Eagle Medium (DMEM) without sodium pyruvate, with pyridoxineHCl, 4500 mg/l glucose, 50 μg/ml gentamicin, and 10% foetal calf serum (FCS).
The cells were washed thoroughly with 37° C. starvation medium (cultivation medium as above without addition of FCS) and then kept in 1 ml 37° C. starvation medium for 2.5 h. 15 min. prior to the experiment, the buffer was changed to 37° C. Hanks' buffer (Gibco), and then kept in 37° C. […]
Protein content was determined in the collected supernatants using a BCA Protein Assay Reagent Kit (Pierce), including albumin standards. […]
The PVDF membranes were incubated with primary antibodies against (I) Phosphop44/42 MAP Kinase (Thr202/Tyr204) and (II) p44/42 MAP Kinase, respectively. […] The membranes were rinsed with TBS/T, and HRP activity on the membranes was detected with the SuperSignal® West Pico Chemiluminescent Substrate kit (Pierce).
Photographic films were exposed to the membranes, and bands of appropriate sizes on the resulting films were quantitated by densitometry, using a GS-710 Imaging Densitometer (Bio-Rad) and Quantity One software (Bio-Rad). […]

For the substance “EAEDLQVGQVELGGGPGAGSLQPLALEGSLQ [human C-peptide]”, in experiment [1] (human renal tubular cells loaded with fura-2/AM, peptide 5 and 10 nM), the “changes in [Ca2+]i (F340/F380 ratio)” value is on record as “effect of 5 nM human C-peptide may be seen”. The “[Ca2+]i response after preincubation of the cells with pertussis toxin” value in experiment [1] is “eliminated”.

As to “EAEALQAAQAELGGGPGAGSLQPLALEGSLQ (EAEALQAAQAELGGGPGAGSLQPLALEGSLQ) [Alanine-rich C-peptide]”, the “capacity of phosphorylating p44/42 MAP kinase” value in experiment [2] was “did not decrease the biological activity”.

Turning to EGSLQ [C-terminal pentapeptide], in experiment [1], the “changes in [Ca2+]i (F340/F380 ratio)” value is reported as “Results similar to those with human C-peptide” and the “[Ca2+]i response after preincubation of the cells with pertussis toxin” value is “eliminated”.

Turning to “EAEPLQPPQPELGGGPGAGSLQPLALEGSLQ [Proline-rich C-peptide]”, the “capacity of phosphorylating p44/42 MAP kinase” value in experiment [2] is “decrease in phosphorylating capacity”.
